The record followed here is patent publication US6703387B2, “Inhibitors of HPV E1 helicase enzyme” (Hoffmann-La Roche Inc., priority 2000, dated 2004).

In the assay the target is T1, HPV(11) E1 helicase enzyme (MBP fusion protein), ATPase activity (Human papillomavirus 11, UniProt P04014).
T1 construct: made in house; host or cells: SF9 insect cells, baculovirus expression system
Kind of assay: E1 ATPase activity assay ([γ33P]ATP hydrolysis, charcoal separation). Particulars: 20 μM ATP, 1 hour at 37° C., pH 7.0, read-out: Activity (IC50, concentration of test compound which inhibits enzyme activity by 50%). Type of assay: biochemical. Here is the method:
For assaying E1 ATPase activity the HPV E1 enzyme has been prepared and purified as follows:
The HPV(11) E1 used in this assay is expressed as a maltose binding protein (MBP) fusion protein from SF9 cells using a baculovirus expression system. Frozen pellets of these cells are thawed by adding the pellet directly into a buffer at 4 OC containing 50 mM Tris-HCl pH 7.5, 20 mM dithiothreitol (DTT), 1 mM EDTA, 600 mM NaCl, 20% glycerol and 3 “Complete” protease inhibitor tablets/50 ml (Boehringer Mannheim cat.no.1 697 498). The cell suspension is then sonicated for 3×10 seconds before centrifuging at 18000 rpm for 30 minutes to remove the cell debris. The clarified extract is then passed down a DE52 ion exchange column which is washed with a buffer containing 50 mM Tris-HCl pH 7.5, 2 mM DTT, 1 mM EDTA, 600 mM NaCl and 20% glycerol. The column flow through plus the first 10 mls of wash buffer are then passed down an amylose affinity column which binds MBP tagged proteins. This column is washed with 3 column bed volumes of the wash buffer before being eluted with wash buffer containing 10 mM maltose. The eluted protein peak containing purified HPV(11) E1 is then dialysed overnight against 2 L of buffer containing 20 mM Tris-HCl pH 7.5, 2 mM DTT, 20 mM NaCl and 20% glycerol. The dialyzed material is used in the assay.
E1 ATPase activity can be measured as follows:
The standard reaction contains 50 mM MOPs KOH pH 7.0, 500 μM MgCl2, 20 μM ATP, 50 mM NaCl, 40 μl of a suitably diluted enzyme extract and 10 μl of inhibitor in a final volume of 100 μl. The ATP contains 0.1 μCi [γ^33P]ATP per reaction. The enzyme diluent contains 50 mM MOPs KOH pH7.0 and 1 mg/ml BSA. The inhibitor is diluted to give a range of concentrations in neat DMSO. Reaction tubes are incubated for 1 hour at 37° C. (producing linear kinetics) after which the reaction is terminated by heat inactivation at 85° C. for 2 minutes. 500 μl 15% activated charcoal in PBS is then added to each reaction. The activated charcoal used is 100-400 mesh untreated powder (Sigma cat No C-5260); prior to use in the assay this is washed in PBS several times and allowed to settle out under gravity, any fine particles still in suspension being decanted off after each wash. The reactions are left on ice for 1 hour after which the charcoal is pelleted out by centrifugation at 14000 rpm for 10 minutes. The charcoal pellet contains unconverted [γ^33P]ATP, whilst any free inorganic ^33P, the reaction product, will remain in the supernatant. The amount of radioactivity present in 300 μl of supernatant is then measured by scintillation spectrophotometry.
The results can be calculated as follows:
The degree of inhibition at each inhibitor concentration is expressed as a percentage of the control reaction (100%) after subtracting a measured blank value, which represents the amount of free inorganic ^33P present in a reaction containing heat inactivated enzyme. An IC50 value (concentration of test compound which inhibits enzyme activity by 50%) is then calculated from a dose response curve of log10 inhibitor concentration against percentage of the control reaction.

SMILES strings stand for the structures. Counter-ions that a name gives are not always drawn.

T1 sequence (P04014 whole entry, the tested form may be a part): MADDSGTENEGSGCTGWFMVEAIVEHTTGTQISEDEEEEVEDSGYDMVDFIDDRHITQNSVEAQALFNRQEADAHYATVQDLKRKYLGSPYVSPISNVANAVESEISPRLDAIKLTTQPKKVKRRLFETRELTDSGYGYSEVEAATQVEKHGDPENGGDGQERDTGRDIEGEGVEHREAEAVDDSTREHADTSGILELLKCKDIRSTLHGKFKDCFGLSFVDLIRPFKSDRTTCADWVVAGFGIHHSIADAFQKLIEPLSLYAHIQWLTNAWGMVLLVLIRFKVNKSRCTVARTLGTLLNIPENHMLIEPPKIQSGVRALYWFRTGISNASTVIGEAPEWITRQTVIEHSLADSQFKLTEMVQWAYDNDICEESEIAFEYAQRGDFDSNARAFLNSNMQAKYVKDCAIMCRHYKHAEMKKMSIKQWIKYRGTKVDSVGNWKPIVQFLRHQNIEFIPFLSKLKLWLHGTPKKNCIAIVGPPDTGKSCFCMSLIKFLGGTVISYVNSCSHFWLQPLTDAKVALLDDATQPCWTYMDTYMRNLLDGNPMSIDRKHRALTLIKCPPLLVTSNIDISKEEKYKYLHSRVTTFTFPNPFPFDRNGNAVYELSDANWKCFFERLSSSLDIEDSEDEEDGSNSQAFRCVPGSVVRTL

On to `CN1CCN=C(/C=C/c2cccc(Oc3ccccc3)c2)c2ccccc21` [Example 3, (E)-2,3-Dihydro-1-methyl-5-(3-phenoxystyryl)-1H-1,4-benzodiazepine dihydrochloride], for which the IC50 came out at 2.4 µM. `CN1CCN=C(/C=C/c2cnccc2-c2cccc(Br)c2)c2ccccc21` [Example 6, (E)-5-[2-[4-(3-Bromophenyl)-3-pyridyl]vinyl]-2,3-dihydro-1-methyl-1H-1,4-benzo-diazepine dihydrochloride]: the IC50 amounted to 4.2 µM. As for `CN1CCN=C(/C=C/c2ccc(Cl)c(Cl)c2)c2cccnc21` [Example 29, (E)-5-(3,4-Dichlorostyryl)-2,3-dihydro-1-methyl-1H-pyrido[2,3-e][1,4]diazepine hydrochloride (1:3)], the figure is 3 µM; as for `FC(F)(F)c1cccc2c1NCCN=C2/C=C/c1ccc(Cl)c(Cl)c1` [Example 38, (E)-5-(3,4-Dichlorostyryl)-9-(trifluoromethyl)-2,3-dihydro-1H-1,4-benzodiazepine dihydrochloride], 5.6 µM; as for `CN1CCN=C(/C=C/c2cnccc2-c2cccc(Br)c2)c2ccc(Br)cc21` [Example 42, (E)-8-Bromo-5-[2-[4-(3-bromophenyl)-3-pyridyl]vinyl]-2,3-dihydro-1-methyl-1H-1,4-benzodiazepine dihydrochloride], 2.4 µM. On to `CN1CCN=C(/C=C/c2ccc(C#N)c(SCc3ccc(Cl)cc3)n2)c2ccc(Br)cc21` [Example 44, (E)-6-[2-(8-Bromo-2,3-dihydro-1-methyl-1H-1,4-benzodiazepin-5-yl)vinyl]-2-(4-chlorobenzylthio)-3-pyridinecarbonitrile dihydrochloride], for which the IC50 came out at 2.5 µM. Regarding `Cc1cc(C)n(COc2cccc(/C=C/C3=NCCN(C)c4ccccc43)c2)n1` [Example 92, (E)-2,3-Dihydro-1-methyl-5-[3-[(3,5-dimethyl-1-pyrazolyl)methoxy]-styryl]-1H-1,4-benzodiazepine dihydrochloride], the IC50 was determined as 19 µM. Turning to `CN1CCN=C(/C=C/c2ccccc2Sc2ccc(Cl)cc2)c2ccccc21` [Example 121, (E)-5-[2-(4-Chlorophenylthio)styryl]-2,3-dihydro-1-methyl-1H-1,4-benzodiazepine dihydrochloride], the IC50 came out at 1.6 µM. Take `CC(C)N1CCN=C(/C=C/c2ccc(Cl)c(Cl)c2)c2ccccc21` [Example 123, (E)-5-(3,4-Dichlorostyryl)-2,3-dihydro-1-isopropyl-1H-1,4-benzodiazepine dihydrochloride]: the IC50 was 2 µM. As for `O=C(c1ccccc1)N1CCN=C(/C=C/c2ccc(Cl)c(Cl)c2)c2ccccc21` [Example 125, (E)-1-Benzoyl-5-(3,4-dichlorostyryl)-2,3-dihydro-1H-1,4-benzodiazepine hydrochloride], the figure is 5.6 µM; as for `COC(=O)c1ccc(CN2CCN=C(/C=C/c3ccc(Cl)c(Cl)c3)c3ccccc32)cc1` [Example 127, Methyl (E)4-[[5-(3,4-dichlorostyryl)-2,3-dihydro-1H-1,4-benzodiazepin-1-yl]methyl]benzoate dihydrochloride], 2.2 µM. Turning to `O=C(O)c1ccc(CN2CCN=C(/C=C/c3ccc(Cl)c(Cl)c3)c3ccccc32)cc1` [Example 132, (E)-4-[[5-(3,4-dichlorostyryl)-2,3-dihydro-1H-1,4-benzodiazepin-1-yl]methyl]benzoic acid dihydrochloride], the IC50 was determined as 4.4 µM. As for `O=C(O)c1cccc(CN2CCN=C(/C=C/c3ccc(Cl)c(Cl)c3)c3ccccc32)c1` [Example 133, (E)-3-[[5-(3,4-Dichlorostyryl)-2,3-dihydro-1H-14-benzodiazepin-1-yl]methyl]benzoic]acid hydrochloride], the IC50 was found to be 3.1 µM.

Regarding `O=C(O)CN1CCN=C(/C=C/c2ccc(Cl)c(Cl)c2)c2ccccc21` [Example 137, (E)-5-(3,4-Dichlorostyryl)-2,3-dihydro-1H-1,4-benzodiazepine-1-acetic acid], the IC50 is 20 µM.

Turning to `CCOC(=O)c1ncn2c1CN=C(/C=C/c1ccc(Cl)c(Cl)c1)c1ccccc1-2` [Example 139, Ethyl (E)-6-(3,4-dichlorostyryl)-4H-imidazo[1,5-a]benzodiazepine-3-carboxylate], the IC50 came out at 20 µM.

On to `CN1CCN=C(/C=C/c2ccc(Cl)c(Cl)c2)c2cc(NS(C)(=O)=O)ccc21` [Example 162, (E)-N-[5-(3,4-Dichlorostyryl)-2,3-dihydro-1-methyl-1H-1,4-benzodiazepin-7-yl]methanesulfonamide], for which the IC50 is 8.6 µM. In the case of `CN1CCN=C(/C=C/c2ccc(Cl)c(Cl)c2)c2ccc(-c3cccs3)cc21` [Example 164, (E)-5-(3,4-Dichlorostyryl)-2,3-dihydro-1-methyl-8-(2-thienyl)-1H-1,4-benzodiazepine hydrochloride], the IC50 is 12 µM.
